One experiment concerns H1975-luc. Kind of experiment: CellTiter-Glo anti-proliferation assay, H1975-luc. It is filed as cell-based. The procedure:
(§1) The anti-proliferation effect of 2 compounds (the compound of formula (I) and temozolomide) in 7 CNS metastasis cell lines (MOLT-4-luc, Nalm-6-luc, NCI-H460-luc, ACHN-luc2, PC-9-luc, H1975-luc, and KM12-luc) was evaluated.
(§2) The plating of cells and compound treatments are shown below in the plate map (Table 12). One plate was needed for the test of 2 compounds (the compound of formula (I) and temozolomide) in one cell line. The compound of formula (I) was tested from 10 μM, 3-fold serial dilution. Temozolomide was tested from 100 μM, 3-fold serial dilution.
(§3) All the cell lines were maintained in culture conditions at 37° C. in an atmosphere with 5% CO2 in air. The tumor cells were routinely subcultured. The cells growing in an exponential growth phase were harvested and counted for plating.
(§4) Cells were counted by haemocytometer with Trypan blue staining. Next, 135 μL of cell suspension were plated into the assay plates according to the plate map and 135 μL of assay medium into the blank wells. The plates were incubated at 37° C., 5% CO2, 95% air and 100% relative humidity overnight.
(§5) 4.4.4 Compound Plate (10×) Preparation and Compound Treatment • 10× concentrate compound plate preparation: Add 198 μL of assay medium into each well of the V-bottom plate; then transfer 2 μL of the stock compound solution of each concentration from the stock plate. Add 2 μL of DMSO into the Blank and Control wells. Pipette up and down to mix well. This V-plate is designated as the 10× concentrate compound plate. • For day 0 plate, add 15 μL of the DMSO-medium into the Control wells. The final DMSO concentration was 0.1%. Then directly proceed to cell viability assay. • For assay plate, add 15 μL of the compound-medium of each well from the 10× concentrate compound plate into the cells in 96-well assay plate according to the plate map. Add 15 μL of the DMSO-medium into the Blank and Control wells. The final DMSO concentration was 0.1%. • Return the assay plate into incubator and incubate for 6 days.
(§6) The procedures were performed according to the Promega CellTiter-Glo Luminescent Cell Viability Assay Kit manual (Promega-G7573). • The CellTiter-Glo buffer was thawed and equilibrated to room temperature prior to use. • CellTiter-Glo Substrate was equilibrated to room temperature prior to use. • The entire liquid volume of CellTiter-Glo Buffer was transferred into the amber bottle containing CellTiter-Glo Substrate to reconstitute the lyophilized enzyme/substrate mixture. This forms the CellTiter-Glo Reagent. • The contents were mixed by gently vortexing to obtain a homogeneous solution. • The plate was equilibrated and its contents to room temperature for approximately 30 minutes. 75 μL (equal to the half volume of culture medium present in each well) CellTiter-Glo • Reagent was added in each well. Plates were covered with aluminum foil to protect from light. • The contents were mixed for 2 minutes on an orbital shaker to induce cell lysis. • The plate was incubated at room temperature for 20 minutes to stabilize luminescent signal. • Record luminescence on the 2104 EnVision plate reader.
(§7) Inhibition rate (IR) of the tested compounds was determined by the following formula: IR (%)=(1−(RLU compound−RLU day0)/(RLU control−RLU day0))*100%. The inhibitions of different dose of compound were calculated in Excel file, and then were used to plot inhibition curves and evaluate related parameters, such as Min (%), Max (%) and GI50. The data were interpreted by GraphPad Prism.
A general note: ATP-based viability assays read luminescence as a measure of living cells.

Another experiment concerns SK-MEL-31. The experiment can be described thus: Cell viability assay, melanoma cell line SK-MEL-31. It is filed as cell-based. The method, then: as §5
as §6, with “This forms the CellTiter-Glo Reagent. • The contents were mixed by gently vortexing to obtain a homogeneous solution. • The plate was equilibrated and its contents to room temperature for approximately 30 minutes. 75 μL (equal to the half volume of culture medium present in each well) CellTiter-Glo • Reagent was added in each well.” left out
(§8) Inhibition rate (IR) of the tested compounds was determined by the following formula: IR (%)=(1−(RLU compound−RLU day0)/(RLU control−RLU day0))*100%. The inhibitions of different dose of compound were calculated in Excel file, and then were used to plot inhibition curves and evaluate related parameters, such as Min (%), Max (%) and GI50. […]

The test system of experiment [1] is U-87MG-luc orthotopic intracranial tumors. The experiment can be described thus: U-87MG-luc glioblastoma orthotopic intracranial model, survival. It is filed as in vivo, female BALB/c nude mice. The method, then: U-87MG-luc cells were derived from U-87MG parental cells acquired from ATCC by stably introducing the gene that encodes the luciferase (luc) protein. The U-87MG-luc cells were cultured at 37° C. in an atmosphere of 5% CO2 in air. The tumor cells were routinely subcultured twice weekly. The cells growing in an exponential growth phase were harvested and counted for tumor inoculation.
3×10^5 U-87MG-luc tumor cells were micro-injected into the right lobe (caudate nucleus) of the brain of each mouse. A total of 94 mice were inoculated. Ten days after cell inoculation, bioluminescence were measured by Xenogen IVIS Lumina II machine, 70 mice were selected and randomly assigned into 7 groups based on bioluminescence intensity and bodyweight. The mice were dosed according to Table 25.

For the next experiment, the system named is SK-MEL-28. Kind of experiment: Cell viability assay, melanoma cell line SK-MEL-28. It counts as cell-based. The method, then: as §5
as §6, with “This forms the CellTiter-Glo Reagent. • The contents were mixed by gently vortexing to obtain a homogeneous solution. • The plate was equilibrated and its contents to room temperature for approximately 30 minutes. 75 μL (equal to the half volume of culture medium present in each well) CellTiter-Glo • Reagent was added in each well.” left out
as §8

The subject of experiment [2] is 7 melanoma cell lines (A375, COLO 829, SK-MEL-3, SK-MEL-5, SK-MEL-24, SK-MEL-28, SK-MEL-31). The experiment can be described thus: Anti-proliferation assay, 7 melanoma cell lines taken together. It is filed as cell-based. The procedure:
as §7
The anti-proliferation effect of the compound of formula (I) in 7 CNS melanoma cell lines was evaluated.

The test system of a further experiment is NCI-H460-luc. The experiment can be described thus: CellTiter-Glo anti-proliferation assay, NCI-H460-luc. It is filed as cell-based. The procedure: as §1, §2, §3, §4, §5, §6, §7
Where [3] appears, read: inhibition rate, 6 days, Compound (I) from 10 μM, temozolomide from 100 μM, 3-fold, 9 points.

Each structure is given as a SMILES string.

Broadly, the GI50 is the concentration giving 50% growth inhibition. Consider `CC(C)N1CCOc2c(F)cc(-c3nc(Nc4ccc(C5CCN(C)CC5)cn4)ncc3F)cc21` [Compound (I), 5-fluoro-4-(8-fluoro-4-isopropyl-3,4-dihydro-2H-benzo[b][1,4]oxazin-6-yl)-N-(5-(1-methylpiperidin-4-yl)pyridin-2-yl)pyrimidin-2-amine], for which the GI50 in the experiment on H1975-luc (144 h, 6 days incubation, read-out: Absolute GI50) was 226 nM; in the experiment with SK-MEL-31 (read-out: Absolute GI50) it was 1230 nM; in the experiment with SK-MEL-28 (Homo sapiens, SK-MEL-28, read-out: Absolute GI50) it was 152 nM; in experiment [2] (read-out: Absolute GI50 values, range over 7 cell lines) it was 156 to 1240 nM; in the experiment on NCI-H460-luc (NCI-H460-Luc, 144 h, 6 days incubation, read-out: Absolute GI50), 228 nM. The “Max (%)” value amounted to 105.8% with H1975-luc (setting [3]), 125.31% in the experiment on SK-MEL-31 (inhibition rate), 106.21% in the experiment on SK-MEL-28 (inhibition rate) and 101.1% in the experiment on NCI-H460-luc (setting [3]). Also, the “Min (%)” value with H1975-luc (setting [3]) is −2.3%; with SK-MEL-31 (inhibition rate), −0.53%; in the experiment on SK-MEL-28 (inhibition rate), 1.70%; in the experiment with NCI-H460-luc (setting [3]) it was 1.9%. In addition, the Median survival is 37 days in experiment [1] (1 mg/kg PO*QD (vehicle 37 days)); 40.5 days in experiment [1] (3 mg/kg PO*QD (vehicle 37 days)); 45 days in experiment [1] (10 mg/kg PO*QD (vehicle 37 days)); 39.5 days in experiment [1] (30 mg/kg IV*QW (vehicle 37 days)); 56 days in experiment [1] (30 mg/kg PO*QD (vehicle 37 days)). Further, the “Survival compared to vehicle treated group” value in experiment [1] (PO at 10 mg/kg and 30 mg/kg) is on record as “significantly prolonged survival”. Also, the “Inhibitory effect in cell viability assay” value in experiment [2] is “significant inhibitory effects”.
